In patent publication US9943501B2 (KOJUN JAPAN CO., LTD., priority 2014, dated 2018):

Columns and labels:
Assay type in all cases: in vivo
[1] = test system: C57BL/6J mice fed with a high-fat diet; experiment: Anti-obesity effect (body weight) on dietary-induced obesity mouse model; settings: 12 weeks; for body weight gain inhibited, with respect to the body weight gain of the control group attributed to the high-calorie diet: once a day into the stomach, 84th day
Protocol: The 5H4PB obtained in Example 6 administered to mice fed with a high-fat diet to verify its anti-obesity effect. Five-week-old male C57BL/6J mice (supplied by Charles River Laboratories Japan, Inc.) were individually raised (one per cage) under environmental conditions involving a temperature of 20 to 26° C., a humidity of 35 to 75%, and 12-hour illumination (7:00 to 19:00). After acclimatization for approximately 1 week, the mice were divided into 6 groups each involving 6 to 8 individuals. Of the test groups, a normal group was fed with a normal solid diet CRF1 (a product of Oriental Yeast Co., Ltd., 3.57 kcal/g) during the test period, and a control group and drug administration groups were fed with a high-calorie solid diet D12492 (a product of Research Diets, Inc., 5.24 kcal/g) during the test period. The diets were freely taken, and water was also freely taken from water supply bottles.
The test substance 5H4PB (produced in Example 6) or a positive control substance rosiglitzaone (a product of Wako Pure Chemical Industries, Ltd.) was administered once a day for 12 weeks at the predetermined dose shown in Table 2 to the mice in each drug administration group. The rosiglitazone is a selective PPARγ ligand and is a substance having the effect of lowering the concentrations of glucose, fatty acid, and insulin in blood through binding to PPARγ. For the administration, body weight measurement was carried out once a week to calculate the dose to each individual. 5H4PB and rosiglitazone were each suspended in a 0.5 w/v % aqueous methylcellulose solution and diluted with the same aqueous solution to adjust the administration dose to 10 mL/kg. Then, each substance was forced-administered into the stomach using a syringe and a flexible stomach tube. […]
From the start of the test (administration), the body weight of each individual was measured at a frequency of once a week, and the average body weight of each test group was determined. […]

[2] = test system: C57BL/6J mice fed with a high-fat diet; experiment: Amounts of subcutaneous fat and visceral fat in dietary-induced obesity mouse model; settings: 85 days, relative to increase in control group over normal group
Protocol: For each individual of the male C57BL/6J mice after lapse of 85 days into the test of Example 9, blood was collected under anesthesia with 2% isoflurane, and the mice were then euthanized. Inguinal subcutaneous fat, epididymal fat, perirenal fat, and mesenteric fat were collected from each individual. The weight of each fat was measured, and the average fat weights of each test group were determined.
The ordinate of the drawing depicts the measured weight (g) of each fat tissue. Each bar of the bar graph indicates the normal group, the control group, the 5H4PB 0.037 μg/kg/day administration group, the 5H4PB 0.01 mg/kg/day administration group, the rosiglitazone 0.037 μg/kg/day administration group, and the rosiglitazone 10 mg/kg/day administration group from the left to the right. […] Specifically, increase in the amount of each fat tissue was inhibited by approximately 35% for the inguinal subcutaneous fat, approximately 18% for the epididymal fat, approximately 13% for the perirenal fat, and approximately 16% for the mesenteric fat in the test group administered 0.037 μg/kg/day of 5H4PB, while increase in the amount of each fat tissue was inhibited by approximately 34% for the inguinal subcutaneous fat, approximately 15% for the epididymal fat, approximately 13% for the perirenal fat, and approximately 40% for the mesenteric fat in the test group administered 0.01 […] of 5H4PB, with respect to the amount of each fat tissue increased in the control group due to the high-calorie diet (the value determined by subtracting the fat tissue weight of the normal group from the fat tissue weight of the control group). Thus, 5H4PB administered at a low dose was confirmed to have subcutaneous fat and visceral fat accumulation inhibitory effects.

[3] = test system: C57BL/6J mice fed with a high-fat diet; experiment: Insulin in blood of dietary-induced obesity mouse model; settings: administration groups, particularly the low-dose group; 85 days; FIG. 16
Protocol: (§1) For each individual of the male C57BL/6J mice after a lapse of 85 days into the test of Example 9, blood was collected from the abdominal vena cava using a syringe supplemented with heparin under anesthesia with 2% isoflurane. The amount of blood collected was set to approximately 0.8 mL. The collected blood was stored under ice cooling until centrifugation. After centrifugation (conditions: 4° C., approximately 1800×g, 10 min), the upper layer was recovered to obtain plasma. The plasma was dispensed to sampling tubes and cryopreserved until measurement. The mouse adiponectin concentration contained in the mouse plasma obtained from each individual was measured using a commercially available ELISA kit, and the average adiponectin concentration of each test group was determined.
(§2) In Example 10, the amount of moose insulin contained in the mouse plasma obtained from each individual was measured using a commercially available ELISA kit, and the average insulin concentration of each test group was determined. The ordinate of the drawing depicts the insulin concentration (ng/mL) in the mouse plasma. The test group indicated by each bar of the bar graph is the same as in FIG. 15 mentioned above.

[4] = test system: C57BL/6J mice fed with a high-fat diet; experiment: Leptin in blood of dietary-induced obesity mouse model; settings: 0.037 μg/kg/day and 0.01 mg/kg/day; 85 days; FIG. 17
Protocol: as §1
as §2, with “Leptin is a protein hormone that regulates appetite and metabolism. The leptin concentration in blood is known to elevate due to obesity, resulting in leptin resistance. In” for “In”, “mouse leptin” for “moose insulin”, “leptin” for “insulin”, “(pg/mL)” for “(ng/mL)”, “FIGS.” for “FIG.”, “15 and 16” for “15”

[5] = 0.01 μg/kg/day (so in the source)

`O=C1C=C(c2ccccc2)C(O)O1` (stereo not shown) [5H4PB, 5-hydroxy-4-phenylbutenolide] was tested. Which “anti-obesity effect (overall)” value ([1]; 0.037 μg/kg/day and 0.01 mg/kg/day) did it give?
Its value is “high anti-obesity effect”.

And the “body weight gain inhibited, with respect to the body weight gain of the control group attributed to the high-calorie diet” value ([1]; 0.037 μg/kg/day)?
The value was 25.8%.

And the “body weight gain inhibited, with respect to the body weight gain of the control group attributed to the high-calorie diet” value ([1]; 0.01 mg/kg/day)?
The value was 27.8%.

And the “increase in the amount of epididymal fat inhibited” value [2, 5]?
The value was “approximately 15%”.

And the “increase in the amount of inguinal subcutaneous fat inhibited” value [2, 5]?
The value was “approximately 34%”.

And the “increase in the amount of mesenteric fat inhibited” value [2, 5]?
Its value is “approximately 40%”.

And the “increase in the amount of perirenal fat inhibited” value [2, 5]?
The value was “approximately 13%”.

And the “increase in the amount of epididymal fat inhibited” value ([2]; 0.037 μg/kg/day)?
The value was “approximately 18%”.

What about the “increase in the amount of inguinal subcutaneous fat inhibited” value ([2]; 0.037 μg/kg/day) of the same compound?
The value was “approximately 35%”.

And the “increase in the amount of mesenteric fat inhibited” value ([2]; 0.037 μg/kg/day)?
The value was “approximately 16%”.

What about the “increase in the amount of perirenal fat inhibited” value ([2]; 0.037 μg/kg/day) of the same compound?
Its value is “approximately 13%”.

And the “insulin concentration in mouse plasma compared with the control group” value [3]?
The value was “inhibition of a rise in insulin concentration was confirmed”.

And the “leptin concentration in mouse plasma compared with the control group” value [4]?
Its value is “inhibition of a rise in leptin concentration was confirmed in a dose-dependent manner”.
